{
  "source": "patent US20180282819A1",
  "about": "“Targeting the Histone Pathway to Detect and Overcome Anthracyclin Resistance” (ONTARIO INSTITUTE FOR CANCER RESEARCH (OICR), priority 2015, published 2018)",
  "assay_type_in_all_cases": "cell-based, human",
  "key": {"MCF7 30 nM-Resistant": {"test_system": "MCF7 30 nM-Resistant", "assay": "Proliferation, cell-doubling time", "details": "+30 nM epirubicin", "protocol": "(§1) Cells were cultured in the presence or absence of epirubicin for up to 96 h (see Flow Cytometry for epirubicin concentrations). Cells were collected at 24, 48, 72 and 96 hours and counted by ViCell (Beckman Coulter, Mississauga, Canada). Data were analyzed in GraphPad Prism5 software.\n(§2) To determine cell-doubling time, the investigators cultured cells with or without epirubicin for up to 96 h. In the absence of epirubicin, the native MDA-MB-231 and MCF7 cell populations doubled every 25 h and 29 h, respectively (Table 2), whereas native SKBR3 and ZR-75-1 cells grew more slowly, doubling every 45 h and 50 h, respectively. In the presence of epirubicin, doubling time increased 2.8-fold for the MDA-MB-231 (p=0.0371), 2.5-fold for MCF7 (ns), 1.3-fold for SKBR3 (p=0.0494) and 1.9-fold for ZR-75-1 (p=0.0258) for native cells. In contrast to the native cell lines, there were no marked changes in the doubling time of the resistant cells, regardless of whether epirubicin was added (Table 2)."}, "MCF7 Native [1]": {"test_system": "MCF7 Native", "assay": "Proliferation, cell-doubling time", "protocol": "as §1, §2"}, "ZR-75-1 10 nM-Resistant": {"test_system": "ZR-75-1 10 nM-Resistant", "assay": "Proliferation, cell-doubling time", "details": "+10 nM epirubicin", "protocol": "as §1, §2"}, "SKBR3 Native [2]": {"test_system": "SKBR3 Native", "assay": "Proliferation, cell-doubling time", "protocol": "as §1, §2"}, "MDA-MB-231 Native [3]": {"test_system": "MDA-MB-231 Native", "assay": "Proliferation, cell-doubling time", "protocol": "as §1, §2"}, "SKBR3 15 nM-Resistant": {"test_system": "SKBR3 15 nM-Resistant", "assay": "Proliferation, cell-doubling time", "details": "+15 nM epirubicin", "protocol": "as §1, §2"}, "ZR-75-1 Native [4]": {"test_system": "ZR-75-1 Native", "assay": "Proliferation, cell-doubling time", "protocol": "as §1, §2"}, "[5]": {"test_system": "MDA-MB-231 25 nM-Resistant", "assay": "Proliferation, cell-doubling time", "details": "+25 nM epirubicin", "protocol": "as §1, §2"}, "SKBR3 15 nM-R": {"test_system": "SKBR3 15 nM-R", "assay": "Apoptosis, Annexin V flow cytometry", "details": "72 h", "protocol": "(§3) For cell cycle, cells were synchronized by the double-thymidine block (Whitfield et al. 2000) and incubated with DMSO or epirubicin doses established for each cell line: 25 nM for MDA-MB-231, 30 nM for MCF7, 15 nM for SKBR3, 10 nM for ZR-75-1. Cells were collected at 48 h, fixed with 80% ethanol and incubated with 2 mg/ml RNase A and 0.1 mg/ml propidium iodide (both from Sigma, Oakville, Canada) prior to analysis. For apoptosis experiments, cells were treated with DMSO or epirubicin at concentrations described above, and collected at 72 h for staining with Annexin V apoptosis-detection eFluor450 (eBioscience, San Diego, USA). Data were collected by FACSCanto II and FACSDiva (BD Biosciences, Mississauga, Canada) and analyzed by FlowJo (Treestar, Ashland, USA).\n(§4) To assess the effects of epirubicin on apoptosis, apoptotic cells were scored by flow cytometry after 72 h of exposure to epirubicin. The apoptotic index was consistently lower for resistant cells compared to native controls (Table 1). In particular, MDA-MB-231 and SKBR3 resistant cells required a substantially higher concentration of epirubicin (1000 nM) to induce apoptosis; even at this concentration of epirubicin, the apoptotic index was still nearly 50% lower compared to the native cells (Table 1)."}, "MDA-MB-231 25 nM-R": {"test_system": "MDA-MB-231 25 nM-R", "assay": "Apoptosis, Annexin V flow cytometry", "details": "72 h", "protocol": "as §3, §4"}, "MCF7 Native [6]": {"test_system": "MCF7 Native", "assay": "Apoptosis, Annexin V flow cytometry", "details": "72 h", "protocol": "as §3, §4"}, "MCF7 30 nM-R": {"test_system": "MCF7 30 nM-R", "assay": "Apoptosis, Annexin V flow cytometry", "details": "72 h", "protocol": "as §3, §4"}, "SKBR3 Native [7]": {"test_system": "SKBR3 Native", "assay": "Apoptosis, Annexin V flow cytometry", "details": "72 h", "protocol": "as §3, §4"}, "MDA-MB-231 Native [8]": {"test_system": "MDA-MB-231 Native", "assay": "Apoptosis, Annexin V flow cytometry", "details": "72 h", "protocol": "as §3, §4"}, "ZR-75-1 10 nM-R": {"test_system": "ZR-75-1 10 nM-R", "assay": "Apoptosis, Annexin V flow cytometry", "details": "72 h", "protocol": "as §3, §4"}, "ZR-75-1 Native [9]": {"test_system": "ZR-75-1 Native", "assay": "Apoptosis, Annexin V flow cytometry", "details": "72 h", "protocol": "as §3, §4"}, "[10]": {"test_system": "MDA-MB-231 resistant cells", "assay": "Cell cycle, PI flow cytometry after double-thymidine block", "details": "25 nM epirubicin, 48 h", "protocol": "(§5) (A-D) Cells were synchronized by a double-thymidine block and treated with DMSO or epirubicin at selection doses established for each resistant cell line: 25 nM epirubicin to MDA-MB-231, 30 nM epirubicin to MCF7, 15 nM epirubicin to SKBR3 and […]. Epirubicin concentration was increased to 100 nM for MCF7 and SKBR3 cells since G2/M block was not observed at the lower doses of epirubicin. Cells were collected at 48 h, stained by PI and analyzed by flow cytometry. Debris was gated out.\nas §3\n(§6) Cells were synchronized prior to exposure to DMSO or epirubicin. […] Therefore, overcoming a G2/M block may be part of the process leading to epirubicin resistance."}, "[11]": {"test_system": "MCF7 epirubicin-resistant cells", "assay": "Cell cycle, PI flow cytometry after double-thymidine block", "details": "100 nM epirubicin, 48 h", "protocol": "as §5, §3, §6"}, "SKBR3 native cells": {"test_system": "SKBR3 native cells", "assay": "Cell cycle, PI flow cytometry after double-thymidine block", "details": "100 nM epirubicin, 48 h", "protocol": "as §5, §3, §6"}, "ZR-75-1 native cells": {"test_system": "ZR-75-1 native cells", "assay": "Cell cycle, PI flow cytometry after double-thymidine block", "details": "10 nM epirubicin, 48 h", "protocol": "as §5, §3, §6"}, "MCF7 native cells": {"test_system": "MCF7 native cells", "assay": "Cell cycle, PI flow cytometry after double-thymidine block", "details": "100 nM epirubicin, 48 h", "protocol": "as §5, §3, §6"}, "MDA-MB-231 native cells": {"test_system": "MDA-MB-231 native cells", "assay": "Cell cycle, PI flow cytometry after double-thymidine block", "details": "25 nM epirubicin, 48 h", "protocol": "as §5, §3, §6"}, "ZR-75-1 resistant cells": {"test_system": "ZR-75-1 resistant cells", "assay": "Cell cycle, PI flow cytometry after double-thymidine block", "details": "10 nM epirubicin, 48 h", "protocol": "as §5, §3, §6"}, "[12]": {"test_system": "SKBR3 epirubicin-resistant cells", "assay": "Cell cycle, PI flow cytometry after double-thymidine block", "details": "100 nM epirubicin, 48 h", "protocol": "as §5, §3, §6"}},
  "data": [
    {"compound": "COc1cccc2c1C(=O)c1c(O)c3c(c(O)c1C2=O)C[C@@](O)(C(=O)CO)C[C@@H]3O[C@H]1C[C@H](N)[C@@H](O)[C@H](C)O1", "note": "[epirubicin]", "values": [
      {"measurement": "Doubling times", "setting": "MCF7 30 nM-Resistant", "value": 37, "unit": "h"},
      {"measurement": "Doubling times", "setting": "MCF7 Native [1]; MCF7 Native, +30 nM epirubicin", "value": 74, "unit": "h"},
      {"measurement": "increase of doubling time in the presence of epirubicin", "setting": "MCF7 Native [1]; MCF7 native cells, ns", "value": 2.5, "unit": "fold"},
      {"measurement": "Doubling times", "setting": "ZR-75-1 10 nM-Resistant", "value": 67, "unit": "h"},
      {"measurement": "Doubling times", "setting": "SKBR3 Native [2]; SKBR3 Native, +15 nM epirubicin", "value": 57, "unit": "h"},
      {"measurement": "increase of doubling time in the presence of epirubicin", "setting": "SKBR3 Native [2]; SKBR3 native cells, p=0.0494", "value": 1.3, "unit": "fold"},
      {"measurement": "Doubling times", "setting": "MDA-MB-231 Native [3]; MDA-MB-231 Native, +25 nM epirubicin", "value": 70, "unit": "h"},
      {"measurement": "increase of doubling time in the presence of epirubicin", "setting": "MDA-MB-231 Native [3]; MDA-MB-231 native cells, p=0.0371", "value": 2.8, "unit": "fold"},
      {"measurement": "Doubling times", "setting": "SKBR3 15 nM-Resistant", "value": 66, "unit": "h"},
      {"measurement": "Doubling times", "setting": "ZR-75-1 Native [4]; ZR-75-1 Native, +10 nM epirubicin", "value": 95, "unit": "h"},
      {"measurement": "increase of doubling time in the presence of epirubicin", "setting": "ZR-75-1 Native [4]; ZR-75-1 native cells, p=0.0258", "value": 1.9, "unit": "fold"},
      {"measurement": "Doubling times", "setting": "[5]", "value": 43, "unit": "h"},
      {"measurement": "Percentages of apoptotic cells", "setting": "SKBR3 15 nM-R; 1 nM epirubicin", "value": 17, "unit": "%"},
      {"measurement": "Percentages of apoptotic cells", "setting": "SKBR3 15 nM-R; 15 nM epirubicin", "value": 17, "unit": "%"},
      {"measurement": "Percentages of apoptotic cells", "setting": "SKBR3 15 nM-R; 1000 nM epirubicin", "value": 34, "unit": "%"},
      {"measurement": "Percentages of apoptotic cells", "setting": "MDA-MB-231 25 nM-R; 1 nM epirubicin", "value": 10, "unit": "%"},
      {"measurement": "Percentages of apoptotic cells", "setting": "MDA-MB-231 25 nM-R; 25 nM epirubicin", "value": 8, "unit": "%"},
      {"measurement": "Percentages of apoptotic cells", "setting": "MDA-MB-231 25 nM-R; 1000 nM epirubicin", "value": 50, "unit": "%"},
      {"measurement": "Percentages of apoptotic cells", "setting": "MCF7 Native [6]; 1 nM epirubicin", "value": 29, "unit": "%"},
      {"measurement": "Percentages of apoptotic cells", "setting": "MCF7 Native [6]; 30 nM epirubicin", "value": 49, "unit": "%"},
      {"measurement": "Percentages of apoptotic cells", "setting": "MCF7 Native [6]; 1000 nM epirubicin", "value": 77, "unit": "%"},
      {"measurement": "Percentages of apoptotic cells", "setting": "MCF7 30 nM-R; 1 nM epirubicin", "value": 24, "unit": "%"},
      {"measurement": "Percentages of apoptotic cells", "setting": "MCF7 30 nM-R; 30 nM epirubicin", "value": 23, "unit": "%"},
      {"measurement": "Percentages of apoptotic cells", "setting": "MCF7 30 nM-R; 1000 nM epirubicin", "value": 78, "unit": "%"},
      {"measurement": "Percentages of apoptotic cells", "setting": "SKBR3 Native [7]; 1 nM epirubicin", "value": 26, "unit": "%"},
      {"measurement": "Percentages of apoptotic cells", "setting": "SKBR3 Native [7]; 15 nM epirubicin", "value": 24, "unit": "%"},
      {"measurement": "Percentages of apoptotic cells", "setting": "SKBR3 Native [7]; 1000 nM epirubicin", "value": 59, "unit": "%"},
      {"measurement": "Percentages of apoptotic cells", "setting": "MDA-MB-231 Native [8]; 1 nM epirubicin", "value": 17, "unit": "%"},
      {"measurement": "Percentages of apoptotic cells", "setting": "MDA-MB-231 Native [8]; 25 nM epirubicin", "value": 41, "unit": "%"},
      {"measurement": "Percentages of apoptotic cells", "setting": "MDA-MB-231 Native [8]; 1000 nM epirubicin", "value": 94, "unit": "%"},
      {"measurement": "Percentages of apoptotic cells", "setting": "ZR-75-1 10 nM-R; 1 nM epirubicin", "value": 28, "unit": "%"},
      {"measurement": "Percentages of apoptotic cells", "setting": "ZR-75-1 10 nM-R; 10 nM epirubicin", "value": 29, "unit": "%"},
      {"measurement": "Percentages of apoptotic cells", "setting": "ZR-75-1 10 nM-R; 1000 nM epirubicin", "value": 62, "unit": "%"},
      {"measurement": "Percentages of apoptotic cells", "setting": "ZR-75-1 Native [9]; 1 nM epirubicin", "value": 44, "unit": "%"},
      {"measurement": "Percentages of apoptotic cells", "setting": "ZR-75-1 Native [9]; 10 nM epirubicin", "value": 47, "unit": "%"},
      {"measurement": "Percentages of apoptotic cells", "setting": "ZR-75-1 Native [9]; 1000 nM epirubicin", "value": 71, "unit": "%"},
      {"measurement": "effect on cell cycle", "setting": "[10]", "value": "progressed through"},
      {"measurement": "effect on cell cycle", "setting": "[11]", "value": "minimal effect"},
      {"measurement": "effect on cell cycle", "setting": "SKBR3 native cells", "value": "arrested in G2/M phase"},
      {"measurement": "effect on cell cycle", "setting": "ZR-75-1 native cells", "value": "arrested in G2/M phase"},
      {"measurement": "effect on cell cycle", "setting": "MCF7 native cells", "value": "arrested in G2/M phase"},
      {"measurement": "effect on cell cycle", "setting": "MDA-MB-231 native cells", "value": "arrested in G2/M phase"},
      {"measurement": "effect on cell cycle", "setting": "ZR-75-1 resistant cells", "value": "progressed through"},
      {"measurement": "effect on cell cycle", "setting": "[12]", "value": "minimal effect"}
    ]}
  ]
}
